Assay results as given in ChEMBL document CHEMBL1201862, “PubChem BioAssay data set” (2004).
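Values below derive from 48-hour exposures of cells grown in 96-well plates, with endpoints linearly interpolated between the two concentrations bracketing the appropriate inhibition level. The concentration for 50% growth inhibition is given as GI50.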 Active and inactive are the calls of the source. No stated cut-off is given here; in the data, active = GI50 up to about 1.1 µM and inactive = higher.

Columns and labels:
Assay in all cases: NCI anticancer screen, dose series, 48 h
[1] = tested on: 786-0
[2] = tested on: A498
[3] = tested on: ACHN
[4] = tested on: COLO 205
[5] = tested on: HCT-116
[6] = tested on: HCT-15
[7] = tested on: HOP-92
[8] = tested on: M14
[9] = tested on: NCI-H23
[10] = tested on: NCI/ADR-RES
[11] = tested on: OVCAR-3
[12] = tested on: OVCAR-5
[13] = tested on: OVCAR-8
[14] = tested on: SF-268
[15] = tested on: SF-295
[16] = tested on: SF-539
[17] = tested on: TK-10
[18] = tested on: UO-31
[19] = tested on: CCRF-CEM
[20] = tested on: SR

CCOC(=O)c1cc(Br)c(-c2cc(C)no2)[nH]1
GI50 [1]: 43.7 µM (inactive)
GI50 [2]: 20.2 µM (inactive)
GI50 [3]: 28.8 µM (inactive)
GI50 [4]: 19.8 µM (inactive)
GI50 [5]: 27.3 µM (inactive)
GI50 [6]: 25 µM
GI50 [7]: 29.9 µM (inactive)
GI50 [8]: 39.7 µM (inactive)
GI50 [9]: 24.4 µM (inactive)
GI50 [10]: 30.4 µM (inactive)
GI50 [11]: 21.3 µM (inactive)
GI50 [12]: 49 µM (inactive)
GI50 [13]: 35.8 µM (inactive)
GI50 [14]: 31.6 µM (inactive)
GI50 [15]: 31.1 µM (inactive)
GI50 [16]: 33.8 µM (inactive)
GI50 [17]: 46.5 µM (inactive)
GI50 [18]: 29.1 µM (inactive)

CC1CC/C(=C\c2ccc(N(C)C)cc2)C2=C1C(c1ccc(N(C)C)cc1)NC(=S)N2 (stereo not given)
GI50 [1]: > 100 µM (inactive)
GI50 [2]: > 100 µM (inactive)
GI50 [3]: > 100 µM (inactive)
GI50 [19]: > 100 µM (inactive)
GI50 [4]: > 100 µM (inactive)
GI50 [5]: > 100 µM (inactive)
GI50 [6]: > 100 µM
GI50 [8]: > 100 µM (inactive)
GI50 [9]: > 100 µM (inactive)
GI50 [10]: > 100 µM (inactive)
GI50 [11]: > 100 µM (inactive)
GI50 [12]: > 100 µM (inactive)
GI50 [13]: > 100 µM (inactive)
GI50 [14]: > 100 µM (inactive)
GI50 [15]: > 100 µM (inactive)
GI50 [16]: > 100 µM (inactive)
GI50 [17]: > 100 µM (inactive)
GI50 [18]: > 100 µM (inactive)

O=[N+]([O-])c1ccc(N2N=C(c3ccc(NCc4nc5ccccc5[nH]4)cc3)CC2c2ccco2)cc1 (stereo not given)
GI50 [1]: 44 µM (inactive)
GI50 [2]: 28.8 µM (inactive)
GI50 [3]: 22.8 µM (inactive)
GI50 [19]: 21.6 µM (inactive)
GI50 [4]: 30.8 µM (inactive)
GI50 [5]: 16.2 µM (inactive)
GI50 [6]: 21.3 µM
GI50 [7]: 32.2 µM (inactive)
GI50 [8]: 23.5 µM (inactive)
GI50 [9]: 19.9 µM (inactive)
GI50 [11]: 21.8 µM (inactive)
GI50 [12]: 49 µM (inactive)
GI50 [13]: 18.1 µM (inactive)
GI50 [14]: 34.8 µM (inactive)
GI50 [15]: 23.6 µM (inactive)
GI50 [16]: 26.1 µM (inactive)
GI50 [20]: 8.85 µM (inactive)
GI50 [17]: 47.2 µM (inactive)
GI50 [18]: 6.53 µM (inactive)

CC1NC(=O)C(C)C(c2ccccc2)N(N=O)C1c1ccccc1 (stereo not given)
GI50 [2]: 12.8 µM (inactive)
GI50 [19]: 55.7 µM (inactive)
GI50 [4]: > 63.4 µM (inactive)
GI50 [5]: > 59 µM (inactive)
GI50 [6]: 55.2 µM
GI50 [7]: 39.7 µM (inactive)
GI50 [9]: > 100 µM (inactive)
GI50 [10]: > 69.8 µM (inactive)
GI50 [11]: > 52.5 µM (inactive)
GI50 [12]: > 100 µM (inactive)
GI50 [13]: > 100 µM (inactive)
GI50 [14]: > 100 µM (inactive)
GI50 [15]: > 34.7 µM (inactive)
GI50 [16]: > 100 µM (inactive)
GI50 [18]: > 92.5 µM (inactive)

C=C1C(=O)OC2CC1CCC1(C)OC1CCC(C)=CCCC2(C)O (stereo not given)
GI50 [2]: 2.13 µM (inactive)
GI50 [19]: 1.03 µM (active)
GI50 [4]: 1.89 µM (inactive)
GI50 [5]: 2.72 µM (inactive)
GI50 [6]: 1.85 µM
GI50 [7]: 2.26 µM (inactive)
GI50 [9]: 1.79 µM (inactive)
GI50 [10]: 1.8 µM (inactive)
GI50 [11]: 3.33 µM (inactive)
GI50 [12]: 10 µM (inactive)
GI50 [13]: 2.33 µM (inactive)
GI50 [14]: 5.36 µM (inactive)
GI50 [15]: 16.8 µM (inactive)
GI50 [16]: 4.62 µM (inactive)
GI50 [18]: 9.04 µM (inactive)

Cn1cc(-c2csc(-c3cn(C)c4ccccc34)n2)c2ccccc21
GI50 [1]: 17.2 µM (inactive)
GI50 [2]: 12.6 µM (inactive)
GI50 [3]: 21.6 µM (inactive)
GI50 [19]: > 100 µM (inactive)
GI50 [4]: > 100 µM (inactive)
GI50 [5]: 43.5 µM (inactive)
GI50 [6]: > 100 µM
GI50 [7]: 20.8 µM (inactive)
GI50 [8]: 26.7 µM (inactive)
GI50 [9]: 84.5 µM (inactive)
GI50 [10]: > 100 µM (inactive)
GI50 [11]: 23.5 µM (inactive)
GI50 [12]: 95.9 µM (inactive)
GI50 [13]: 25.6 µM (inactive)
GI50 [14]: 58.2 µM (inactive)
GI50 [15]: 23.4 µM (inactive)
GI50 [17]: 27 µM (inactive)
GI50 [18]: > 100 µM (inactive)

Nc1nc(CCC(=O)Nc2cccc(C(F)(F)F)c2)cc(-c2ccc3ccccc3c2)n1
GI50 [1]: > 100 µM (inactive)
GI50 [2]: > 100 µM (inactive)
GI50 [3]: > 100 µM (inactive)
GI50 [19]: > 100 µM (inactive)
GI50 [4]: > 100 µM (inactive)
GI50 [5]: > 100 µM (inactive)
GI50 [6]: > 100 µM
GI50 [7]: > 100 µM (inactive)
GI50 [8]: > 100 µM (inactive)
GI50 [9]: > 100 µM (inactive)
GI50 [11]: > 100 µM (inactive)
GI50 [12]: > 100 µM (inactive)
GI50 [13]: > 100 µM (inactive)
GI50 [14]: > 100 µM (inactive)
GI50 [15]: > 100 µM (inactive)
GI50 [16]: > 100 µM (inactive)
GI50 [20]: > 100 µM (inactive)
GI50 [17]: > 100 µM (inactive)
GI50 [18]: > 100 µM (inactive)

O=C1C=CC(=O)c2c(Cl)ccc(O)c21
GI50 [2]: > 87.9 µM (inactive)
GI50 [4]: 13.1 µM (inactive)
GI50 [5]: 9.79 µM (inactive)
GI50 [6]: 17.8 µM
GI50 [7]: 2.75 µM (inactive)
GI50 [9]: 12.4 µM (inactive)
GI50 [10]: 18.7 µM (inactive)
GI50 [11]: 15.6 µM (inactive)
GI50 [12]: > 54.1 µM (inactive)
GI50 [13]: 20.4 µM (inactive)
GI50 [14]: 18.4 µM (inactive)
GI50 [15]: > 42.3 µM (inactive)
GI50 [16]: > 42.3 µM (inactive)
GI50 [18]: > 100 µM (inactive)

Cc1cc(C(=O)NCCN(C)C)c2nc3ccccc3cc2c1
GI50 [2]: 1.15 µM (inactive)
GI50 [19]: 1.36 µM (inactive)
GI50 [4]: 1.1 µM (active)
GI50 [5]: 0.904 µM (active)
GI50 [6]: 1.65 µM
GI50 [7]: 1.45 µM (inactive)
GI50 [9]: 2.3 µM (inactive)
GI50 [10]: 1.1 µM (active)
GI50 [11]: 2.38 µM (inactive)
GI50 [12]: 1.98 µM (inactive)
GI50 [13]: 1.25 µM (inactive)
GI50 [14]: 2.77 µM (inactive)
GI50 [15]: 1.27 µM (inactive)
GI50 [16]: 3.76 µM (inactive)
GI50 [18]: 1.42 µM (inactive)

C#CC(C)(C)OCCCCOc1cc(O)c2c(=O)c3ccccc3n(C)c2c1
GI50 [1]: > 100 µM (inactive)
GI50 [2]: 91 µM (inactive)
GI50 [3]: > 100 µM (inactive)
GI50 [19]: > 100 µM (inactive)
GI50 [4]: 23.7 µM (inactive)
GI50 [5]: > 100 µM (inactive)
GI50 [6]: > 100 µM
GI50 [7]: > 100 µM (inactive)
GI50 [8]: 87.9 µM (inactive)
GI50 [9]: > 100 µM (inactive)
GI50 [11]: > 100 µM (inactive)
GI50 [12]: > 100 µM (inactive)
GI50 [13]: > 100 µM (inactive)
GI50 [14]: > 100 µM (inactive)
GI50 [15]: > 100 µM (inactive)
GI50 [16]: > 100 µM (inactive)
GI50 [20]: 89.3 µM (inactive)
GI50 [17]: > 100 µM (inactive)
GI50 [18]: > 100 µM (inactive)

ClCc1ccc2ccc3ccc(CCl)nc3c2n1
GI50 [2]: 10.6 µM (inactive)
GI50 [19]: 1.8 µM (inactive)
GI50 [4]: 1.71 µM (inactive)
GI50 [5]: 1.69 µM (inactive)
GI50 [6]: 1.78 µM
GI50 [7]: 2.09 µM (inactive)
GI50 [9]: 2.9 µM (inactive)
GI50 [10]: 1.71 µM (inactive)
GI50 [11]: 1.94 µM (inactive)
GI50 [12]: 2.85 µM (inactive)
GI50 [13]: 3.36 µM (inactive)
GI50 [14]: 4.19 µM (inactive)
GI50 [15]: 2.31 µM (inactive)
GI50 [16]: 2.25 µM (inactive)
GI50 [18]: 1.69 µM (inactive)

CC1=C2C3OC(=O)C(C)C3CCC2(C)C=C/C1=N\c1ccccc1 (stereo not given)
GI50 [2]: > 100 µM (inactive)
GI50 [19]: > 100 µM (inactive)
GI50 [4]: > 100 µM (inactive)
GI50 [5]: > 100 µM (inactive)
GI50 [6]: > 100 µM
GI50 [7]: > 100 µM (inactive)
GI50 [9]: > 100 µM (inactive)
GI50 [10]: > 100 µM (inactive)
GI50 [11]: > 100 µM (inactive)
GI50 [12]: > 100 µM (inactive)
GI50 [13]: > 100 µM (inactive)
GI50 [14]: > 100 µM (inactive)
GI50 [15]: > 100 µM (inactive)
GI50 [16]: > 100 µM (inactive)
GI50 [18]: > 100 µM (inactive)
